How the values were obtained:
[1] = NBT superoxide scavenging (SOD-like activity) assay; type: biochemical; details: for Absorbance 560 nm Ave: SOD primary data
Source text: The purpose of these experiments was to measure the Superoxide Dismutase-like (SOD-like) activity of the copper ion complex (RM191A) depicted in the Examples below as “Cu”. The inventors employed a modified version of the method described by Beauchamp and Fridovich (see, Beauchamp et al. 1971). The reason for this modification was to create a reaction mixture that successfully generates known quantities of the O2^− free radical but does so at a pH at which the copper ion complex is stable—specifically in the range pH 6.5-7.8.
Because of the instability of its substrate, all available chemical assays of SOD and SOD-like activity are necessarily indirect and depend upon its ability to scavenge O2^− from reaction mixtures and thus to inhibit reactions caused by O2^−.
NitroBlue Tetrazolium (NBT) was selected as an indicator to measure and compare the superoxide scavenging activities of both bovine SOD and the copper ion complex (“RM191A,” the preparation of which is described in detail in International PCT Patent Publication No. WO/AU2016/201524), This assay utilizes photochemical events to generate O2^− in a sodium tetraborate buffered solution of acetone and isopropanol which is then irradiated by high energy UV light at 254 nm (Mercury Vapour Lamp) to create O2^− in the solution.
SOD and SOD-like substances inhibit the formation of the blue formazan by neutralising the superoxide free radicals as they are forming. Blue formazan has a characteristic UV absorbance at 560 nm. The quantitation of the UV absorbance of the reaction solution at 560 nm is a direct measure the SOD and SOD-like activity of a substance.
UV absorbances of the reaction solutions were measured at 560 nm following irradiation with UV light to determine the superoxide free radical scavenging activity in situ of both bovine SOD and the copper ion complex (RM191A).
Each reaction solution consists of 0.5 ml of 200 μmol/L NBT in borate buffer (pH=7.1) and 0.5 ml of a 200 μmol/L solution of the test compound in 5.0 mL of 5 mol/L isopropanol.
To each reaction vessel 15 mg acetone (20 μL) as added to begin the reaction. Each vessel was then irradiated with UV light at 254 nm (mercury vapour lamp) for 1 minute.
The reaction solution was then transferred into UV Vis cells and the absorbance at 560 nm was measured.
A number of test solution concentrations were assayed by adding, 1.0, 1.25, 1.5, 1.75, 2.0 mL of a 200 μmol/L solution of the test compound and bringing the total volume to 5.0 mL with 5 mol/L isopropanol.
The method uses a Cu control to remove the minor background copper absorbance.

human skin explants [2] = experiment: UV-induced 8-oxoG in human skin explants (immunohistochemistry); type: cell-based; details: epidermis; treatment of UV-exposed explants (post-treatment, RM191A Gel 2); vs UV-exposed controls
Source text: FIG. 5. (A) Representative images of immunohistochemical staining of 8-oxoG in human explants from isotype control and sham exposed explants. (B) Representative images of immunohistochemical staining of 8-oxoG in human skin explants from UV-exposed explants. (C-D) Analysis of 8-oxoG in (C) epidermis and (D) dermis of skin explants. Bars indicate significant differences **** p<0.001; NS=not significant between data sets (n=3 explants per data point).
(§1) Exposure of skin to UV radiation induces oxidative stress via a dramatic increase in ROS (see, Dunaway et al., 2018). In this section of the research work we measured oxidative DNA damage caused by UV-induced cyclobutene pyrimidine dimers (CPD), oxidative DNA damage resulting from UV-induced 8-oxo-guanine (8-oxoG), and nitrosative DNA damage caused by 8-nitroguanine (8NG) (Mason et al., 2013). Typically, if these DNA lesions are not adequately repaired, they lead to mutations which may then lead to the development of skin tumours (Mason et al., 2013). Our primary objective here was to determine if RM191A, when applied topically to ex vivo human skin, reduced UV-induced DNA damage.
(§2) The same treatment protocols were also followed for a placebo gel which contained no RM191A. […]

human skin explants [3] = experiment: UV-induced CPD in human skin explants (immunohistochemistry); type: cell-based; details: epidermis; treatment of UV-exposed explants (post-treatment, RM191A Gel 2); vs UV-exposed controls
Source text: FIG. 4: RM191A protects against UV-induced oxidative stress. (A) Representative images of immunohistochemical staining of CPDs in human explants from isotype control and sham exposed explants. There was little staining in the isotype control. […] (B) Representative images of immunohistochemical staining of CPDs in human skin explants from UV-exposed explants. (C) Analysis of CPD in epidermis of skin explants. Bars indicate significant differences **** p<0.001; NS=not significant between data sets (n=3 explants per data point).
as §1, §2

human skin explants [4] = experiment: UV-induced 8-nitroguanine (8NGO) in human skin explants (immunohistochemistry); type: cell-based; details: either protocol
Source text: FIG. 6. (A) Representative images of immunohistochemical staining of 8NGO in human explants from isotype control and sham exposed explants. (B) Representative images of immunohistochemical staining of 8NGO in human skin explants from UV-exposed explants. (C-D) Analysis of 8NGO in epidermis (C) and dermis (D) of skin explants. Bars indicate significant differences **** p<0.001; NS=not significant between data sets (n=3 explants per data point).
as §1, §2

SOD: bovine superoxide dismutase used as comparator
Absorbance (Table 5) ([1]; 1.6 μM): 0.2988 | Absorbance (Table 5) ([1]; 20 μM): 0.2879 | Absorbance (Table 5) ([1]; 40 μM): 0.2348 | Absorbance (Table 5) ([1]; 80 μM): 0.332 | Absorbance 560 nm Ave ([1]; Molarity 0.0000016): 0.2988 | Absorbance 560 nm Ave ([1]; Molarity 0.00002): 0.2879 | Absorbance 560 nm Ave ([1]; Molarity 0.00004): 0.2348 | Absorbance 560 nm Ave ([1]; Molarity 0.00008): 0.332 | Absorbance 560 nm Ave ([1]; Molarity 0.0001): 0.3163 | Absorbance 560 nm Ave ([1]; Molarity 0.00012): 0.3215 | Absorbance 560 nm Ave ([1]; Molarity 0.00014): 0.3555

C=C1/C(=C\C=C2/CCC[C@]3(C)[C@@H]([C@H](C)CCCC(C)(C)O)CC[C@@H]23)C[C@@H](O)C[C@@H]1O [1,25D, 1,25-dihydroxy vitamin D3]
decrease in nuclear 8-oxoG (human skin explants [2]): 27% | decrease in CPD (human skin explants [3]): 30% | 8NGO vs UV-exposed controls (human skin explants [4]): significantly decreased
